Data taken from PMC3358459 (Journal of Pharmaceutical and Biomedical Analysis, 2012).

How the values were obtained:
Stability of R- = assay type: in vitro ADME, human; settings: for Remained concentration: human plasma with 20 mM glutathione, added concentration 3.585 μg/mL, n=3, Mean±S.D.
[1] = cited from earlier work

## Cc1cc2c(C(C)C)c(O)c(O)c(C=O)c2c(O)c1-c1c(C)cc2c(C(C)C)c(O)c(O)c(C=O)c2c1O [R-(-)-gossypol]
Stability of R-; 5 μg/mL in plasma with 20 mM reduced glutathione and 1% ascorbic acid, 4°C
  Effect of antioxidants on stability in plasma: can improve the stability
Stability of R-; -80°C, 1 month
  Remained concentration: 111.8±5.6%
Stability of R-; on ice, 4hr
  Remained concentration: 103.8±6.1%
Stability of R-; three freeze-thaw cycles
  Remained concentration: 86.9±1.1%
Stability of R-; plasma, room temperature, over 24hr, compared to freshly prepared samples
  Degraded in plasma: more than 60%
acetonitrile/water (80:20), 24hr at 4°C
  Stability in mobile phase: good stability

## Cc1cc2c(C(C)C)c(O)c(O)c(C=O)c2c(O)c1-c1c(C)cc2c(C(C)C)c(O)c(O)c(C=O)c2c1O [gossypol]
[1]; acetonitrile
  Stability in acetonitrile: stable
[1]; methanol, even at 5°C
  Stability in methanol: decompose
[1]; water, methanol, ethanol and alcoholic solvents
  Stability in solvents: unstable
Stability of R-; plasma with 20 mM glutathione, -70°C for 1 month
  Stability of quality control plasma samples: stable
Stability of R-; plasma with 20 mM glutathione, after 3 cycles, lower concentration
  Freeze-thaw stability: significant degradation
Stability of R-; plasma with 20 mM glutathione, on ice for 4 hr
  Stability of quality control plasma samples: stable

## R-(-)-gossypol acetic acid
1mg/mL in acetonitrile, -70°C
  Time stock solution was stable: 3 months
